Earlier results, collected in publication PMC9605497, “Potential of Epidermal Growth Factor-like Peptide from the Sea Cucumber Stichopus horrens to Increase the Growth of Human Cells: In Silico Molecular Docking Approach” (Marine Drugs, 2022).

Legend:
human skin model = details: 50 nM, compared to 0.1 nM and 10 nM EGF; ref [18]; cited from earlier work
Excerpt: Despite these nutritional properties that could be indirectly associated with the wound healing benefit of this marine organism, the full potential of sea cucumber as a source of marine therapeutic product remains unexplored and limited to the previous approaches of specific metabolite identification. Among the prospective molecules to be investigated are growth factors and cytokines, which are examples of important mitogens that ensure an effective wound healing process. Several mitogens are involved directly as growth factors in cell proliferation such as epidermal growth factor (EGF) ...

carcinoma cells = details: 10 nM EGF; ref [75] Clark et al.; cited from earlier work
Experimental: (§1) The rationale of testing peptide concentrations at 10 nM was based on a study done by Clark et al.. In the study, the EGFR expression in carcinoma cells was prolonged for 10 h when 10 nM of EGF was exerted, as compared to only 4 h of EGFR expression in 0.4 nM EGF. This is supported by another experiment by Zhao et al. where cell proliferation of CHO cells can only be induced when exerted with EGF concentrations below 0.1 ng/mL. In contrast, cell proliferation at higher EGF concentrations (1 to 100 ng/mL) was suppressed. The process of EGF binding to its receptor and the internali ...

CHO cells = details: ref [76] Zhao et al., cited from earlier work
Experimental: as §1

HeLa cells = details: ref [77]; cited from earlier work
Experimental: as §1

EGFR = details: SPR and AFM, experimental; ref [41] Kuo et al.; read-out: dissociation constant (Kd) of EGF and EGFR complex; cited from earlier work
Excerpt: The values are different because docking is based on the scoring functions used. […] A lower Kd value means dissociation occurs at a slow rate and the binding affinity (Ka) between these ...

receptors (EGFR) = details: 0.156 to 5 ng/mL biotinylated EGF; ref [46] King et al.; cited from earlier work
Experimental: The increasing binding activity was determined by both the concentration of biotinylated EGF tested and the number of cells used. In this study, inoculating about 80,000 cells gives a reproducible result as opposed to when lower number of cells was used. Increasing the ligand concentration could improve assessment of the binding signal of Sh-EGFl-1 peptide with human EGFR s ...

Row | Substance | DNA synthesis (human skin model) | duration of EGFR expression (carcinoma cells) [h] | cell proliferation at higher EGF concentrations (CHO cells; 1 to 100 ng/mL) | EGF concentration inducing cell proliferation (CHO cells; CHO cells) | time for EGF binding and internalization of receptor (HeLa cells) | Kd (EGFR) [nM] | absorbance reading (receptors (EGFR))
1 | Human EGF: human EGF (chain C) of crystal structure 1IVO; also EGF of cited literature (MNSDSECPLSHDGYCLHDGVCMYIEALDKYACNCVVGYIGERCQYRDLKWWELR; biotin (conjugated with NHS-biotin; sites not stated)) | maximum increase of DNA synthesis | 10 | suppressed | below 0.1 ng/mL | less than 30 min | ~177 | 
2 | biotinylated EGF: biotinylated EGF used by King et al. |  |  |  |  |  |  | consistent increases in the absorbance reading
